{"source": "patent US7029857B1", "about": "“Processes for obtaining compounds employing SNORF72 receptors” (H. Lundbeck A/S, priority 1999, dated 2006)", "key": {"SNORF72 [1]": {"molecular_target": "T1, SNORF72 (Homo sapiens, UniProt Q9GZQ4, A395T)", "T1 construct": "expressed in transfected cells; host or cells: COS-7 (transient, DEAE-dextran)", "T1 sequence (Q9GZQ4 whole entry A395T)": "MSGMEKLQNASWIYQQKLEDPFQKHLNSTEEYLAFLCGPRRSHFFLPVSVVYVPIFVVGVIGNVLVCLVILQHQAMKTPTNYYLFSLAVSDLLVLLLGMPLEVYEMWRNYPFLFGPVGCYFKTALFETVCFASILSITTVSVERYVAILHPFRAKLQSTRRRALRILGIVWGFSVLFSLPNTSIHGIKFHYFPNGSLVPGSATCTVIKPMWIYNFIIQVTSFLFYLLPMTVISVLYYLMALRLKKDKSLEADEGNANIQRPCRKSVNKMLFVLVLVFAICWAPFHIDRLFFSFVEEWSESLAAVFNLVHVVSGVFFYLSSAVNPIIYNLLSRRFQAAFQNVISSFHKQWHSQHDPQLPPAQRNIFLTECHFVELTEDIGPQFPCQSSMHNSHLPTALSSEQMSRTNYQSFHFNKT", "assay": "Intracellular Ca2+ release (FLIPR) in SNORF72-transfected COS-7 cells", "type": "cell-based", "settings": "SNORF72-transfected COS-7 cells, peptides at 300 nM (FIG. 8)", "protocol": "(§1) A typical protocol for the DEAE-dextran method as applied to COS-7 and HEK293 cells is described as follows. Cells to be used for transfection are split 24 hours prior to the transfection to provide flasks which are 70–80% confluent at the time of transfection. Briefly, 8 μg of receptor DNA plus 8 μg of any additional DNA needed (e.g. Gα protein expression vector, reporter construct, antibiotic resistance marker, mock vector, etc.) are added to 9 ml of complete DMEM plus DEAE-dextran mixture (10 mg/ml in PBS). Cells plated into a T225 flask (sub-confluent) are washed once with PBS and the DNA mixture is added to each flask. The cells are allowed to incubate for 30 minutes at 37° C., 5% CO2. Following the incubation, 36 ml of complete DMEM with 80 μM chloroquine is added to each flask and allowed to incubate an additional 3 hours. The medium is then aspirated and 24 ml of complete medium containing 10% DMSO for exactly 2 minutes and then aspirated. The cells are then washed 2 times with PBS and 30 ml of complete DMEM added to each flask. The cells are then allowed to incubate over night. The next day the cells are harvested by trypsinization and reseeded into 96 well plates.\n(§2) Cells expressing the receptor of interest are plated into clear, flat-bottom, black-walled 96-well plates (Costar) at a density of 80,000–150,000 cells per well and allowed to incubate for 48 hr at 5% CO2, 37° C. The growth medium is aspirated and 100 μL of loading medium containing Fluo-3 dye is added to each well. The loading medium contains: 20 mM HEPES (Sigma), 0.1% BSA (Sigma), dye/pluronic acid mixture (e.g. 1 mM Fluo-3/AM (Molecular Probes) and 10% pluronic acid (Molecular Probes) mixed immediately before use), and 2.5 mM probenecid (Sigma)(prepared fresh). The cells are allowed to incubate for about 1 hour at 5% CO2, 37° C.\n(§3) The compounds of interest are diluted in wash buffer (Hank's BSS (without phenol red), 20 mM HEPES, 2.5 mM probenecid) to a 4× final concentration and aliquoted into a clear v-bottom plate (Nunc). Following the dye incubation, the cells are washed 4 times to remove excess dye using a Denley plate washer. 100 μL final volume of wash buffer is then added to each cell well. Compounds are added to the cell plates and responses are measured using the FLIPR™ instrument. The data are then collected and analyzed using the FLIPR™ software and Graphpad Prism.\n(§4) COS-7 cells were transiently transfected with SNORF62, SNORF72 or vector DNA (mock) as described in Materials and Methods."}, "rat SNORF72": {"molecular_target": "T2, rat SNORF72 (Rattus norvegicus, UniProt Q9ESQ4)", "T2 construct": "corresponding to a predicted protein of 395 amino acids; expressed in transfected cells; host or cells: COS-7 (transient)", "T2 sequence (Q9ESQ4 whole entry)": "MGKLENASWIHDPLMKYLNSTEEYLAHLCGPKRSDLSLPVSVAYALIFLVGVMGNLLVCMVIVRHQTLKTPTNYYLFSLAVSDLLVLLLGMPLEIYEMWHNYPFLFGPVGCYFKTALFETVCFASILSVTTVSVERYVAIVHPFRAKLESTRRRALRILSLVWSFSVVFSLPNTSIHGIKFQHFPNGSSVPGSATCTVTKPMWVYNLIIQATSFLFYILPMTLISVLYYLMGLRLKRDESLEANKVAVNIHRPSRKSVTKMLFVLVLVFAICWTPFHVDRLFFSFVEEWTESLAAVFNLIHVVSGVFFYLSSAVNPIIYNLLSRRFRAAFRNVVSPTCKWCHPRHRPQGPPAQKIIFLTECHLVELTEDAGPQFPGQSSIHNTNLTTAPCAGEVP", "assay": "Intracellular Ca2+ release (FLIPR) in rat SNORF72-transfected COS-7 cells", "type": "cell-based", "settings": "FIG. 22 at 100 nM", "protocol": "as §1, with “The medium is then aspirated and 24 ml of complete medium containing 10% DMSO for exactly 2 minutes and then aspirated. The cells are then washed 2 times with PBS and 30 ml of complete DMEM added to each flask. The cells are then allowed to incubate over night. The next day the cells are harvested by trypsinization and reseeded into 96 well plates.” left out\nIn another method, the measurement of intracellular Ca^2+ can also be performed on a 96-well (or higher) format and with alternative Ca^2+-sensitive indicators, preferred examples of these are: aequorin, Fluo-3, Fluo-4, Fluo-5, Calcium Green-1, Oregon Green, and 488 BAPTA. After activation of the receptors with agonist ligands the emission elicited by the change of intracellular Ca^2+ concentration can be measured by a luminometer, or a fluorescence imager; a preferred example of this is the fluorescence imager plate reader (FLIPR™, Molecular Devices). […]"}, "rat uterus membranes": {"test_system": "rat uterus membranes", "settings": "binding site in rat uterus; cited from earlier work"}, "[2]": {"settings": "cited from earlier work"}, "rat adrenal gland slices": {"test_system": "rat adrenal gland slices", "settings": "cited from earlier work"}, "[3]": {"test_system": "isolated rat inner adrenocortical cells", "settings": "absence of medullary cells; cited from earlier work"}, "SNORF62 [4]": {"molecular_target": "T3, SNORF62 (Homo sapiens, UniProt Q9HB89)", "T3 sequence (Q9HB89 1-426)": "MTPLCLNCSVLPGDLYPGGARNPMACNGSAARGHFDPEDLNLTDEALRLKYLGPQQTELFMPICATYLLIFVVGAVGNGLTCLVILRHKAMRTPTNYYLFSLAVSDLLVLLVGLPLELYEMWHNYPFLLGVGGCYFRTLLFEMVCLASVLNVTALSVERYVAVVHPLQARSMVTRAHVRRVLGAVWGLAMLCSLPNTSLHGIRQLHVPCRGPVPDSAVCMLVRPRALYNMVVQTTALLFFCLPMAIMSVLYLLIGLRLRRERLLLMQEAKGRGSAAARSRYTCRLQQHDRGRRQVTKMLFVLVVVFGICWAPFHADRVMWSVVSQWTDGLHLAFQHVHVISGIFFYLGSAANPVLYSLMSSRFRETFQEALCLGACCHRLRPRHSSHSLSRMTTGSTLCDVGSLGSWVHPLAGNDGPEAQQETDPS", "assay": "Intracellular Ca2+ release (FLIPR) in SNORF62-transfected COS-7 cells", "type": "cell-based", "parameters": "The SNORF62 cDNA codes for a protein of 426 amino acids; expressed in transfected cells; host or cells: COS-7 (transient, DEAE-dextran)", "settings": "for maximum response / agonist efficacy at SNORF62: functional assay, data not shown", "protocol": "as §1, §2, §3, §4"}, "SNORF62 [5]": {"molecular_target": "T3, SNORF62", "assay": "Inositol phosphate (IP) release in SNORF62-transfected COS-7 cells", "type": "cell-based", "parameters": "The SNORF62 cDNA codes for a protein of 426 amino acids; expressed in transfected cells; host or cells: COS-7 (transient, DEAE-dextran)", "experimental": "Human SNORF62 receptor-mediated activation and human SNORF72 receptor-mediated activation of the inositol phosphate (IP) second messenger pathways were assessed by radiometric measurement of IP products.\nFor example, in a 96 well microplate format assay, COS-7 cells expressing the receptor of interest were plated at a density of 70,000 cells per well and allowed to incubate for 24 hours. The cells were then labeled with 0.5 μCi [^3H]myo-inositol overnight at 37° C., 5% CO2. Immediately before the assay, the medium was removed and replaced with 180 μL of Phosphate-Buffered Saline (PBS) containing 10 mM LiCl. The plates were then incubated for 20 min at 37° C., 5% CO2. Following the incubation, the cells were challenged with agonist (20 μl/well; 10× concentration) for 30 min at 37° C. The challenge was terminated by the addition of 100 μL of 5% v/v trichloroacetic acid, followed by incubation at 4° C. for greater than 30 minutes. Total IPs were isolated from the lysate by ion exchange chromatography. Briefly, the lysed contents of the wells were transferred to a Multiscreen HV filter plate (Millipore) containing Dowex AG1-X8 (200–400 mesh, formate form). The filter plates were prepared adding 100 μL of Dowex AG1-X8 suspension (50% v/v, water: resin) to each well. The filter plates were placed on a vacuum manifold to wash or elute the resin bed. Each well was first washed 2 times with 200 μl of 5 mM myo-inositol. Total [^3H]inositol phosphates were eluted with 75 μl of 1.2M ammonium formate/0.1M formic acid solution into 96-well plates. 200 μL of scintillation cocktail was added to each well, and the radioactivity was determined by liquid scintillation counting."}, "SNORF72 [6]": {"molecular_target": "T1, SNORF72", "assay": "Displacement of [125I]rat NMU-23 binding in SNORF72-transfected COS-7 membranes", "settings": "SNORF72 membranes, displacement of [125I]rat NMU-23; read-out: average pKi (converted)", "protocol": "(§5) The specifics of preparing such cell membranes may in some cases be determined by the nature of the ensuing assay but typically involve harvesting whole cells and disrupting the cell pellet by sonication in ice cold buffer (e.g. 20 mM Tris HCl, mM EDTA, pH 7.4 at 4° C.). The resulting crude cell lysate is cleared of cell debris by low speed centrifugation at 200×g for 5 min at 4° C. The cleared supernatant is then centrifuged at 40,000×g for 20 min at 4° C., and the resulting membrane pellet is washed by suspending in ice cold buffer and repeating the high speed centrifugation step. The final washed membrane pellet is resuspended in assay buffer. Protein concentrations are determined by the method of Bradford (1976) using bovine serum albumin as a standard. The membranes may be used immediately or frozen for later use.\n(§6) Radioligand binding assays were performed by diluting membranes prepared from cells expressing the receptor in 50 mM Tris buffer (pH=7.4 at 0° C.) containing 0.1% bovine serum albumin (Sigma), aprotinin (0.005 mg/ml, Boehringer Mannheim) and bestatin (0.1 mM, Sigma) as protease inhibitors. The final protein concentration in the assay was 12–40 μg/ml. […] The bound ligand was separated from free by filtration through GF/B filters presoaked in 0.5% polyethyleneimine (PEI), using a Tomtec (Wallac) vacuum filtration device. After addition of Ready Safe (Beckman) scintillation fluid, bound radioactivity was quantitated using a Trilux (Wallac) scintillation counter (approximately 40% counting efficiency of bound counts). Data was fit to non-linear curves using GraphPad Prism.\n(§7) In this manner, agonist or antagonist compounds that bind to the receptor may be identified as they inhibit the binding of the labeled ligand to the membrane protein of cells expressing the said receptor. Non-specific binding was defined as the amount of radioactivity remaining after incubation of membrane protein in the presence of 100 nM of the unlabeled peptide corresponding to the radioligand used. In equilibrium saturation binding assays membrane preparations or intact cells transfected with the receptor are incubated in the presence of increasing concentrations of the labeled compound to determine the binding affinity of the labeled ligand."}, "[7]": {"test_system": "isolated rat uterus preparations", "settings": "read-out: EC50 concentration for contraction; cited from earlier work"}, "SNORF62 [8]": {"molecular_target": "T3, SNORF62", "assay": "Displacement of [125I]rat NMU-23 binding in SNORF62-transfected COS-7 membranes", "parameters": "The SNORF62 cDNA codes for a protein of 426 amino acids; expressed in transfected cells; host or cells: COS-7 (transient, DEAE-dextran)", "settings": "SNORF62 membranes, displacement of [125I]rat NMU-23; read-out: average pKi (converted)", "protocol": "as §5, §6, §7"}, "SNORF72 [9]": {"molecular_target": "T1, SNORF72", "assay": "Saturation binding of radioligands to SNORF72-transfected COS-7 membranes", "settings": "two values n=2", "protocol": "COS-7 cells were transiently transfected with SNORF72 and membranes were prepared as described in Materials and Methods. […] Results presented are representative of 2 experiments performed in duplicate.\n(§8) Cell membranes expressing the receptor protein of this invention are useful for certain types of assays including but not restricted to ligand binding assays, GTP-γ-S binding assays, and others. The specifics of preparing such cell membranes may in some cases be determined by the nature of the ensuing assay but typically involve harvesting whole cells and disrupting the cell pellet by sonication in ice cold buffer (e.g. 20 mM Tris HCl, mM EDTA, pH 7.4 at 4° C.). The resulting crude cell lysate is cleared of cell debris by low speed centrifugation at 200×g for 5 min at 4° C. […] Protein concentrations are determined by the method of Bradford (1976) using bovine serum albumin as a standard. […]\n(§9) Radioligand binding assays were performed by diluting membranes prepared from cells expressing the receptor in 50 mM Tris buffer (pH=7.4 at 0° C.) containing 0.1% bovine serum albumin (Sigma), aprotinin (0.005 mg/ml, Boehringer Mannheim) and bestatin (0.1 mM, Sigma) as protease inhibitors. […] After addition of Ready Safe (Beckman) scintillation fluid, bound radioactivity was quantitated using a Trilux (Wallac) scintillation counter (approximately 40% counting efficiency of bound counts). […]"}, "SNORF62 [10]": {"molecular_target": "T3, SNORF62", "assay": "Saturation binding of radioligands to SNORF62-transfected COS-7 membranes", "parameters": "The SNORF62 cDNA codes for a protein of 426 amino acids; expressed in transfected cells; host or cells: COS-7 (transient, DEAE-dextran)", "settings": "two values n=2", "protocol": "COS-7 cells were transiently transfected with SNORF62 and membranes were prepared as described in Materials and Methods. […] Results are representative of 2 experiments performed in duplicate.\nas §8, §9"}, "[11]": {"settings": "rats, single subcutaneous injection 6 μg/100 g body weight"}}, "note": "Where “and” joins values, the source holds several entries; their conditions need not be identical. Identical values can stand only once. No end group written: not given here.", "data": [{"compound": "CC(C)C[C@H](NC(=O)[C@H](Cc1ccccc1)NC(=O)[C@@H](N)Cc1ccc(O)cc1)C(=O)N[C@@H](Cc1ccccc1)C(=O)N[C@@H](CCCNC(=N)N)C(=O)N1CCC[C@H]1C(=O)N[C@@H](CCCNC(=N)N)C(=O)N[C@@H](CC(N)=O)C(N)=O", "note": "[porcine NMU-8, Y F L F R P R N—NH2]", "values": [{"measurement": "stimulation of intracellular Ca2+ release", "setting": "SNORF72 [1]", "value": "stimulated"}, {"measurement": "increases in intracellular Ca2+", "setting": "rat SNORF72", "value": "robust increases"}, {"measurement": "IC50", "setting": "rat uterus membranes", "value": 60, "unit": "nM"}, {"measurement": "stress-evoked rise in corticosterone", "setting": "[2]; rats treated for 6 days", "value": "absent"}, {"measurement": "time during which ACTH blood concentrations are elevated", "setting": "[2]; [11]", "value": "3 to 12", "unit": "h"}, {"measurement": "time plasma corticosterone levels remain elevated", "setting": "[2]; [11]", "value": 24, "unit": "h"}, {"measurement": "adrenal weight and the number of cells in the zona reticularis", "setting": "[2]; repeated administration", "value": "decreased"}, {"measurement": "basal corticosterone and pregnenolone steroid secretion", "setting": "rat adrenal gland slices", "value": "markedly increased"}, {"measurement": "basal corticosterone secretion", "setting": "[3]", "value": "without effect"}, {"measurement": "maximum response / agonist efficacy at SNORF62", "setting": "SNORF62 [4]", "value": "full agonists"}, {"measurement": "agonist efficacy in IP release assay", "setting": "SNORF62 [5]", "value": "full agonists"}]}, {"compound": "YKVNEYQGPVAPSGGFFLFRPRN-NH2 [rat NMU-23, YKVNEYQGPVAPSGGFFLFRPRN—NH2]", "values": [{"measurement": "stimulation of intracellular Ca2+ release", "setting": "SNORF72 [1]", "value": "stimulated"}, {"measurement": "increases in intracellular Ca2+", "setting": "rat SNORF72", "value": "robust increases"}, {"measurement": "Ki", "setting": "SNORF72 [6]", "value": 1, "unit": "nM"}, {"measurement": "IC50", "setting": "rat uterus membranes", "value": 1, "unit": "nM"}, {"measurement": "EC50", "setting": "[7]", "value": 0.2, "unit": "nM"}, {"measurement": "basal corticosterone secretion", "setting": "[3]", "value": "directly decreased"}, {"measurement": "maximum response / agonist efficacy at SNORF62", "setting": "SNORF62 [4]", "value": "full agonists"}, {"measurement": "EC50", "setting": "SNORF62 [4]; stimulation of Ca2+ release, SNORF62-transfected COS-7 cells, n = 2-7 (Table 1A)", "value": "2.1 ± 0.5", "unit": "nM"}, {"measurement": "Ki", "setting": "SNORF62 [8]", "value": 0.398, "unit": "nM"}, {"measurement": "agonist efficacy in IP release assay", "setting": "SNORF62 [5]", "value": "full agonists"}]}, {"compound": "[^125I]rat NMU-23: radioiodinated rat NMU-23 radioligand (NEN, specific activity 2200 Ci/mmole) (YKVNEYQGPVAPSGGFFLFRPRN-NH2; ends and bridges not checked; also: radioiodinated (125I), position not given here)", "values": [{"measurement": "Bmax", "setting": "SNORF72 [9]", "value": "8.0 pmol/mg protein and 8.2 pmol/mg protein"}, {"measurement": "Bmax", "setting": "SNORF62 [10]", "value": "16.5 pmol/mg protein and 9.9 pmol/mg protein"}]}]}
